Results reported in US8846111B2, “Compositions and methods for establishing and/or maintaining pregnancy” (Alltech, Inc., priority 2007, dated 2014).

System: gene encoding relaxin
Assay: AFFYMETRIX chicken genome array, oviduct RNA of hens fed selenium: relaxin
Assay type: in vivo
Details: 0.3 ppm selenium in diet, over forty weeks, relative to selenium deficient animals
From the text: In an effort to examine possible benefits of administration of selenium on female reproductive performance, hens were randomly selected from a broiler-breeder flock housed at Coldstream poultry facility, University of Kentucky. The hens were maintained on a selenium-deficient diet from 6 weeks of age until 22 weeks of age and were then placed on the following dietary treatments for over forty weeks until the time of sampling: 1) Control, selenium-deficient, Torula yeast-based diet (0.02 ppm selenium); 2) The control diet supplemented with 0.3 ppm selenium from sodium selenite; and 3) The control diet supplemented with 0.3 ppm selenium from SEL-PLEX. Hens were taken from each of the three experimental groups, their oviducts removed, flash-frozen and stored at −80° C. prior to RNA isolation.
Labeled RNA preparations from oviduct were hybridized with AFFYMETRIX chicken genome arrays containing 38,000 probe sets using standard methodology.

O=[Se](O)O [sodium selenite]
relaxin gene expression, upregulation: no significant effect
